Reference: US20250214978A1, “AT2R AGONIST” (WUHAN HUMANWELL INNOVATIVE DRUG RESEARCH AND DEVELOPMENT …, priority 2022, published 2025)

How the values were obtained:
Format in all cases: in vitro ADME
[1] = Bidirectional permeability study in CACO-2 cells; conditions: human, pH 7.4, Caco-2 monolayer, pH 7.40
Method: Caco-2 cells were inoculated onto polyethylene membrane (PET) in 96-well inserted plates at a rate of 1×10^5 cells/cm^2, and the medium was changed every 4 to 5 days until day 21 to 28, to form a fused cell monolayer. The transport buffer in the assay was HBSS and 10.0 mM HEPES, with a pH of 7.40±0.05. The test compounds were subjected to a bidirectional test at 2.00 μM in the presence and absence of GF120918 (10.0 μM). Digoxin was subjected to a bidirectional test at 10.0 μM in the presence and absence of GF120918 (10.0 μM), while Nadolol and Metoprolol were subjected to a test from direction A to direction B at 2.00 μM in the absence of GF120918 (10.0 μM). The above tests were performed in duplicate. The final concentration of DMSO was adjusted to be lower than 1%. The plate was incubated in a CO2 incubator at 37° C.±1° C. for 2 hours, and 5% CO2 was added under saturated humidity without shaking. All the samples, after being mixed with acetonitrile containing internal standard, were centrifuged at 3,200 g for 10 minutes. […] The concentrations of the test compounds and control compounds in the starting solution, the donor solution, and the acceptor solution were quantified by LC-MS/MS based on a peak area ratio of the analyte to the internal standard.
After the transport assay, the integrity of the Caco-2 cell monolayer was determined using Lucifer Yellow Exclusion Assay.

CYP2C19 = CYP2C19 (Homo sapiens (Human), UniProt P33261); assay: CYP inhibition assay in mixed human liver microsomes; conditions: mixed (pooled) human liver microsomes, read-out: Inhibition rate % CYP2C19
Method: (§1) The inhibitory effects of the compounds on seven enzymes, i.e., CYP1A2, CYP2C9, CYP2C19, CYP2D6, CYP3A4 (midazolam), CYP2B6, and CYP2C8, were evaluated at a concentration of 10 μM. Mixed human liver microsomes, which were previously stored in a −80° C. refrigerator before use, were taken out and thawed in a water bath at 37° C. before use, and placed on ice for further operation. 100 μL of microsome working solution was taken, and added with 2 μL of test product or positive inhibitor working solution. 2 μL of solvent was added to the solvent control. The mixture was pre-incubated in a water bath at 37° C. for 10 minutes. After preincubation, 98 μL of NADPH regeneration solution was added to all samples to initiate the reaction. Then, the samples were put back into the water bath and incubated for a period of time. The reaction was quenched with 200 μL of stop solution. The plate was centrifuged at 3,220 g for 10 minutes, 100 μL of supernatant was transferred, and 100 μL of water was added and mixed well to the assay plate for LC/MS/MS analysis.

CYP2B6 = CYP2B6 (Homo sapiens (Human), UniProt P20813); assay: as above; conditions: mixed (pooled) human liver microsomes, read-out: Inhibition rate % CYP2B6
Method: as §1

CYP2C9 = CYP2C9 (Homo sapiens (Human), UniProt P11712); assay: as above; conditions: mixed (pooled) human liver microsomes, read-out: Inhibition rate % CYP2C9
Method: as §1

CYP1A2 = CYP1A2 (Homo sapiens (Human), UniProt P05177); assay: as above
Method: as §1

CYP2C8 = CYP2C8 (Homo sapiens (Human), UniProt P10632); assay: as above; conditions: mixed (pooled) human liver microsomes, read-out: Inhibition rate % CYP2C8
Method: as §1

CYP2D6 = CYP2D6 (Homo sapiens (Human), UniProt P10635); assay: as above; conditions: mixed (pooled) human liver microsomes, read-out: Inhibition rate % CYP2D6
Method: as §1

CYP3A4 = CYP3A4 (Homo sapiens (Human), UniProt P08684); assay: as above; conditions: mixed (pooled) human liver microsomes, probe midazolam, read-out: Inhibition rate % CYP3A4 (midazolam)
Method: as §1

CYP2D6, sequence (P10635 whole entry): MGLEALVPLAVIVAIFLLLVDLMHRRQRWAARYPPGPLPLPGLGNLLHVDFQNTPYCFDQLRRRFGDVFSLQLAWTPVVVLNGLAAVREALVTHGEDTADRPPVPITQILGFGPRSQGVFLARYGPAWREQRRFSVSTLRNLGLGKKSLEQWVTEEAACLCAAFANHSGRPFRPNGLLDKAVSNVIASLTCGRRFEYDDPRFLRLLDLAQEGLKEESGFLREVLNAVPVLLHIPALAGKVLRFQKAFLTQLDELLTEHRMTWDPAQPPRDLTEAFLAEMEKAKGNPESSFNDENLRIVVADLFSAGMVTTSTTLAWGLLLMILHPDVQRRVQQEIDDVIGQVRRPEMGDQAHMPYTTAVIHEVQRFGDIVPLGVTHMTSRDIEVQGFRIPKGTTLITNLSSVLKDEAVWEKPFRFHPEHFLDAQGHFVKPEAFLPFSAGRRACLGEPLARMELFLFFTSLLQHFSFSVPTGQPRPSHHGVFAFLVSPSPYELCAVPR
CYP2C19, sequence (P33261 whole entry): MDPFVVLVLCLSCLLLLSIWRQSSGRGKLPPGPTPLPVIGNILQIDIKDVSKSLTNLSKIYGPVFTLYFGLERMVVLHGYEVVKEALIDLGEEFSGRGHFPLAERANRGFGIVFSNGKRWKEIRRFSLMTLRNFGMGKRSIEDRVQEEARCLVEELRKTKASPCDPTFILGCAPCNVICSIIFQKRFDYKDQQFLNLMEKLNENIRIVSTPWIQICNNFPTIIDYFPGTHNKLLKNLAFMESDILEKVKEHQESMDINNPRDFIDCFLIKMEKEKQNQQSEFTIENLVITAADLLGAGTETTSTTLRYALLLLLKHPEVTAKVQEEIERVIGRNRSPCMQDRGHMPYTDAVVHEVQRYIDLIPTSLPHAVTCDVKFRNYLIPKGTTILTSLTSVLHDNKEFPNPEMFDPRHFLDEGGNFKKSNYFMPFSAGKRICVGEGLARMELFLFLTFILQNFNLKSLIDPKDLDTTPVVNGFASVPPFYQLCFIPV
CYP3A4, sequence (P08684 whole entry): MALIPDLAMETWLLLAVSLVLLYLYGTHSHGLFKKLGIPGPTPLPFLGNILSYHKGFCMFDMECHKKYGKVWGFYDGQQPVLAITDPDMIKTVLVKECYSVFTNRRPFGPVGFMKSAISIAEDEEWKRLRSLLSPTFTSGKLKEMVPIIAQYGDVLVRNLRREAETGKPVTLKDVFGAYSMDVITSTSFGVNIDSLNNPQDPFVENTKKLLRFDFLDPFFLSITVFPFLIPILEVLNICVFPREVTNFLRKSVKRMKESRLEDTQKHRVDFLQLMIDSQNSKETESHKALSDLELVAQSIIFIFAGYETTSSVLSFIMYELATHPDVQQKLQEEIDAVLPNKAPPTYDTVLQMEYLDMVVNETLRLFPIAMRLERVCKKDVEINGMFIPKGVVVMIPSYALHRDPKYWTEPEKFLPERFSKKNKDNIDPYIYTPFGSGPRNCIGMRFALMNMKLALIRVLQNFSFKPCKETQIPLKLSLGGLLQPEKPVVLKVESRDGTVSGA
CYP2B6, sequence (P20813 whole entry): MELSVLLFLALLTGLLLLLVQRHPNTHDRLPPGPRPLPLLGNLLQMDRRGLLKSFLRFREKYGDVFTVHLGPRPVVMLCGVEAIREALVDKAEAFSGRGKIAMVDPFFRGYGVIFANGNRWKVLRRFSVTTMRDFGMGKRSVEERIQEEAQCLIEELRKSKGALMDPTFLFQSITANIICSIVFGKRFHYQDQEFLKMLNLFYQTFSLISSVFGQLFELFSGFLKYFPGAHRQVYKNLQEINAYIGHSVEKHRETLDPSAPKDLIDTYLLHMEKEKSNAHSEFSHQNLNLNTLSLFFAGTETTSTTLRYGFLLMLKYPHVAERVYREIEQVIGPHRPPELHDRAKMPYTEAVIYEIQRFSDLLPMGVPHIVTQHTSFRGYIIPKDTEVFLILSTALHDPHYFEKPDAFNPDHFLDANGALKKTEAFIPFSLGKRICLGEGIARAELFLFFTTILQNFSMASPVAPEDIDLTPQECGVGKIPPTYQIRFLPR
CYP1A2, sequence (P05177 whole entry): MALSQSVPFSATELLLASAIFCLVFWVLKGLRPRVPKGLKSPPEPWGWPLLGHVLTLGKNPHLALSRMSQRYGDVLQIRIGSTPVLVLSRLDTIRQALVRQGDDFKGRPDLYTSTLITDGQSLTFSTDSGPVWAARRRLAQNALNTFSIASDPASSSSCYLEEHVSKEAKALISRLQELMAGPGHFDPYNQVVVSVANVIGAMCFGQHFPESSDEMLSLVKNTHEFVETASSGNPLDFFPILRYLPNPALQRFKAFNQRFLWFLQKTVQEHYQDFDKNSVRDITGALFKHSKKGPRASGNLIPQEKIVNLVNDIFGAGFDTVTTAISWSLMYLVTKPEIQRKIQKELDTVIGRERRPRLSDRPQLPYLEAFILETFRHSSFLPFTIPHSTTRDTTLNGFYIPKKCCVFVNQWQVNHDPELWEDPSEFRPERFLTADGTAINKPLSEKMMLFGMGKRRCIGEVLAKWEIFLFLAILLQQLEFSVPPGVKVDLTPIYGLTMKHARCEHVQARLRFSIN
CYP2C8, sequence (P10632 whole entry): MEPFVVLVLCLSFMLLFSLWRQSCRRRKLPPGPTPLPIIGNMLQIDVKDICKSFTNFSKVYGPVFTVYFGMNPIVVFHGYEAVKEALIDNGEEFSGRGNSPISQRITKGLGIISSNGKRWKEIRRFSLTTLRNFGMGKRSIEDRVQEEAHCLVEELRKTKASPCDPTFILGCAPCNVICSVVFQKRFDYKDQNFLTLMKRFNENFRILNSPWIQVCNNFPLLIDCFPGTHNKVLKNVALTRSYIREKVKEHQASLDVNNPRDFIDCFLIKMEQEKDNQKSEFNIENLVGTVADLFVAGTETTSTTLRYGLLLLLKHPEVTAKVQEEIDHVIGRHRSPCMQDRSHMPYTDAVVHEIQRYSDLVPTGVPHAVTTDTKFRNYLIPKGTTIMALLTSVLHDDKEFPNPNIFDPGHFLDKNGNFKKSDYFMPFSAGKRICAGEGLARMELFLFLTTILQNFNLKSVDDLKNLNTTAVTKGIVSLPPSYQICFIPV
CYP2C9, sequence (P11712 whole entry): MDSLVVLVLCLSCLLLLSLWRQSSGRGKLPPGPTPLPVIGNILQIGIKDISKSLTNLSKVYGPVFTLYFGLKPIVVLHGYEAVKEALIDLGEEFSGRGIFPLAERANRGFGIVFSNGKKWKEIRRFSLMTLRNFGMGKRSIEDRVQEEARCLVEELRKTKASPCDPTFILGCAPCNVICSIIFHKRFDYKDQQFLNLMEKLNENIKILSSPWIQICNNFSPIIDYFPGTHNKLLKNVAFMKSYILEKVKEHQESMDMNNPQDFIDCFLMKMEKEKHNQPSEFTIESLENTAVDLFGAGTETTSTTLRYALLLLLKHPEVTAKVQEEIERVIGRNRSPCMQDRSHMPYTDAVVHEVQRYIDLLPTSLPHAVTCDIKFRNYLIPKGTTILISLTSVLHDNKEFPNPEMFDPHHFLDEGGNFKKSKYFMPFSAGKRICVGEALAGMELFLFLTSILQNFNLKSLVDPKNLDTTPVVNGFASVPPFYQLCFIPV

Papp A→B at 2 h, 2 μM [1]: 3.13 ×10⁻⁶ cm/s
inhibition at 10 µM (CYP2C19): 36.5%
inhibition at 10 µM (CYP2B6): 13.7%
inhibition at 10 µM (CYP2C9): 77.3%
inhibition at 10 µM (CYP1A2): 2.82%
inhibition at 10 µM (CYP2C8): 71.8%
inhibition at 10 µM (CYP2D6): 12.6%
inhibition at 10 µM (CYP3A4): 3.8%
Structure (SMILES): COC(=O)NS(=O)(=O)c1sc(CC(C)C)c(C)c1-c1ccc(Cn2ccnc2Cl)cc1 [Compound I-34, Methyl ((3-(4-((2-chloro-1H-imidazol-1-yl)methyl)phenyl)-5-isobutyl-4-methylthiophen-2-yl)sulfonyl)carbamate]
